Tests used:
PTEN null T-ALL = assay: Diseased Lck/PTEN^fl/fl mice with PTEN null T-ALL; type: in vivo
Description: Mouse whole blood was incubated with appropriate antibodies and processed using the BD Bioscience BD FACS Lysing Solution according to the manufacturer's instructions. Immediately after lysis, cells were permeabilized with 0.025% Tween-20 in lysing solution for 15 minutes, then incubated with Ki67 antibodies. Single cell suspensions of thymocytes were isolated and stained with the appropriate antibodies as described in Swat, W. et al., Essential role of PI3 Kdelta and PI3 Kgamma in thymocyte survival, Blood 107, 2415-2422 (2006).
All mice were kept in specific pathogen-free facility at Columbia University Medical Center. All procedures were performed in accordance with the guidelines of the Institutional Animal Care and Use Committee. Lck-cre, NOD.Cg-Prkdc^scid Il2rg^tmlWjl/Sz and Gt(ROSA)26Sor^tml(Luc)Kael/J mice were obtained from the Jackson Laboratory. Mice deficient for PTEN in the T-cell lineage were generated by crossing Lck-cre with floxed PTEN. P110γ^−/− and p110δ^−/− mice as described in Swat, W. et al., Essential role of PI3 Kdelta and PI3 Kgamma in thymocyte survival, Blood 107, 2415-2422 (2006). The animals were intercrossed with Lck-cre/PTEN^fl/fl animals to generate mice homozygous mutant for either p110γ or p110δ and PTEN or homozygous mutant for p110γ, 110δ, and PTEN.
Lck/PTEN^fl/fl mice were crossed with the mice having a luciferase cDNA, preceded by a LoxP-stop-LoxP cassette was introduced into the ubiquitously expressed ROSA26 locus. […] The results are consistent with the reduction in whole blood cells and CD4 single positive population of tumor cells.
Lck/PTEN^fl/fl mice having T-ALL were administered with Compound B at an oral dose of 10 mg/kg every 8 hours or DMSO vehicle for a period of 7 days. […] Compound B extended the median survival to 45 days compared to 7.5 days for the vehicle group (data not shown).
Diseased Lck/PTEN^fl/fl mice (i.e. Lck/PTEN^fl/fl mice diagnosed with T-ALL) were treated with Compounds B for a period of 7 days. Mice were examined for sequential blood counts, peripheral smears, and flow cytometric analyses. […] Forward scatter (FSC) and Ki67 staining were indicators of cell size and proliferation, respectively; and apoptosis was detected by assessing the […] population after PI staining.
PTEN^fl/fl mice were crossed with the mice having a luciferase cDNA, preceded by a LoxP-stop-LoxP cassette was introduced into the ubiquitously expressed ROSA26 locus. Progeny were then crossed with Lck-cre transgenics to delete PTEN in T-cell progenitors and induce expression of luciferase. Imaging on T-ALL tumor bearing mice was performed at Day 0 and 4 after treatment of Compound B or vehicle.

CCRF-CEM cells [1] = assay: Proliferation and apoptosis of CCRF-CEM cells; type: cell-based; conditions: 1, 2.5, or 5 μM, within 24 hours, persisted 4 days
Description: CCRF-CEM cells were obtained from ATCC and grown in RPMI-1640 medium containing 10% FBS and antibiotics.
Cell counts for mice thymii were determined as described in Swat, W. et al., Essential role of PI3 Kdelta and PI3 Kgamma in thymocyte survival, Blood 107, 2415-2422 (2006). Cell proliferation of untransfected or shRNA transfected CCRF-CEM cells was followed by cell counting of samples in triplicate using a hemocytometer.
Cells were stained with APC-conjugated Annexin-V (BD Biosciences) in Annexin Binding Buffer (Miltyeni Biotec) and analyzed by flow cytometry.
CCRF-CEM cells, a PTEN null acute lymphoblastoid leukemia cell line, were treated with Compound B of 1, 2.5, or 5 μM or control of DMSO vehicle for a period of 4 days.

CCRF-CEM cells [2] = assay: Immunoblot of signaling and pro-apoptotic pathways in CCRF-CEM cells; type: cell-based
Description: Cell lysates (from cell lines or thymocytes) were prepared on ice in M-PER Mammalian Protein Extraction reagent (Pierce) containing a cocktail of protease and phosphatase inhibitors as described in Swat, W. et al., Essential role of PI3 Kdelta and PI3 Kgamma in thymocyte survival, Blood 107, 2415-2422 (2006). Equal amounts of total protein from lysates were separated using SDS-PAGE, transferred to PVDF membrane (Immobilon-P, Millipore). Membranes were incubated overnight incubation with appropriate primary antibodies. Bound antibodies were visualized with HRP-conjugated secondary antibodies and ECL chemistry (SuperPico West, Pierce).
The ability of Compound B treatment to interfere with proapoptotic effectors such as the BH3-only pro-apoptotic protein BAD and to repress the expression of BIM was also examined. CCRF-CEM cells were treated with Compound B ranging from 0, 0.25, 0.5, 1.0, 2.5, 5.0 and 10 μM.

CCRF-CEM xenografts = assay: Subcutaneous CCRF-CEM xenograft, bioluminescence; type: in vivo, mice; conditions: 10 mg/kg for 4 days, subcutaneous tumors
Description: Luminescent CCRF-CEM (CEM-luc) cells were generated by lentiviral infection with FUW-luc and selection with neomycin. Luciferase expression was verified with the Dual-Luciferase Reporter Assay kit (Promega). CEM-luc cells (2.5×10^6) embedded in Matrigel (BD Biosciences) were injected in the flank of NOD.Cg-Prkdc^scid Il2rg^tmlWjl/Sz mice. After 1 week, mice were treated by oral gavage with vehicle (0.5% methyl cellulose, 0.1% Tween-80) or compound every 8 hours daily for 4 days. Mice were anesthetized by isoflurane inhalation […] of D-luciferin ([…], Xenogen). Photonic emission was imaged with the In Vivo Imaging System (IVIS, Xenogen). Tumor bioluminescence was quantified by integrating the photonic flux (photons per second) through a region encircling each tumor using the LIVING IMAGES software package (Xenogen).
(§1) To assess the in vivo relevance of these observations, mice with subcutaneous or intravenous CCRF-CEM cells were treated with either Compound B or DMSO vehicle. In the subcutaneous xenographs, luciferase expressing CCRF-CEM cells were injected into the flanks of immunodeficient mice and allowed to grow for 1 week before administering vehicle control or 10 mg/kg of Compound B for a period of 4 days. In the intravenous xenographs, treatment commenced 3-day post-injection of tumor cells for a period of 7 days.

CCRF-CEM xenograft = assay: Intravenous (systemic) CCRF-CEM xenograft, survival; type: in vivo, mice; conditions: treatment for 7 days from 3 days post-injection; vehicle control 23 days
Description: CCRF-CEM cells (5×10^6) were injected intravenously in fourteen NOD.Cg-Prkdc^scid Il2rg^tmlWjl/Sz mice. After 3 days, mice were segregated into two groups that received compound or vehicle for 7 days. Mice in both groups were then followed until moribund and euthanized.
as §1

primary T-ALL tumors = assay: Viability of primary T-ALL tumors; type: cell-based, human; conditions: 1.0, 2.5, and 5.0 μM, 72 hours
Description: Cryopreserved samples from the Columbia Presbyterian Hospital, the Erasmus MC-Sophia Children's Hospital, and the University of Padua were used. All samples were collected with informed consent and supervised by the institutes' review boards and the Acute Lymphoblastic Leukemia Strategic Scientific Committee.
For primary T-ALL samples, cell viability was determined using the BD Cell Viability kit (BD Biosciences) and fluorescent counting beads as previously described in Armstrong, F. et al., NOTCH is a key regulator of human T-cell acute leukemia initiating cell activity, Blood 113, 1730-1740 (2009). Cells were plated with MS5-DL1 stroma cells. After 72 hours following treatment, cells were harvested and stained with an APC-conjugated anti-human CD45 according to the manufacturer's instructions. For solid tumor cell lines, cellular viability was determined using the AlamarBlue kit (Invitrogen). About 10,000 cells in 100 μL of media containing 10% FBS were aliquoted into individual wells of a 96-well plate and treated with vehicle (DMSO) or compound in triplicate for 24 hours. Ten μL of AlamarBlue reagent was added to each well and incubated for 4 hours at 37° C. with 5% CO2. Fluorescence was measured with an excitation wavelength at 530 to 560 nm and emission wavelength at 590 nm using Spectramax M5 plate reader (Molecular Devices, Sunnyvale, Calif.). […]

For `Cc1ccccc1-n1c(C(C)Nc2nc(N)nc3[nH]cnc23)nc2cccc(C)c2c1=O` (centres unmarked) [Compound B, 2-(1-(2-amino-9H-purin-6-ylamino)ethyl)-5-methyl-3-o-tolylquinazolin-4(3H)-one], the “weights of thymi, liver, spleen, and kidneys” value (PTEN null T-ALL; Compound B for 7 days, versus vehicle control, P<0.01) was “significantly less”, the WBC (PTEN null T-ALL; Compound B treatment for 7 days, by Day 4) was “significant reduction” and the bioluminescent imaging signals (PTEN null T-ALL; Compound B treatment, Day 4, versus vehicle) was “dramatically lower”. The “apoptosis (sub-G0 population after propidium iodide staining)” value (PTEN null T-ALL; Compound B treatment, Day 4 through Day 7) was “increase in apoptosis”, the median survival (PTEN null T-ALL; oral 10 mg/kg every 8 hours for 7 days, vehicle group 7.5 days) was 45 days and the apoptosis (CCRF-CEM cells [1]) was “promoted apoptosis”. For the same molecule, the proliferation (CCRF-CEM cells [1]) was “prevented proliferation”, the “phosphorylation of GSK3β and mTOR” value (CCRF-CEM cells [2]; 0.25 to 10 μM) was “reduction” and the “expression of BIM (including the L and S isoforms)” value (CCRF-CEM cells [2]; Compound B treatment) was “enhanced expression”. For the same molecule, the “phosphorylation of BAD” value (CCRF-CEM cells [2]; Compound B treatment) was “reduction”, the “Akt/PKB (Ser473) phosphorylation” value (CCRF-CEM cells [2]; […]) was “reduction and complete abrogation” and the “difference in luminescence, treated versus vehicle treated animals” value (CCRF-CEM xenografts) was 5 fold. For the same molecule, the median survival time (CCRF-CEM xenograft) was 35 days and the “viability of tumor cells” value (primary T-ALL tumors) was “reduced”.

— patent US20130143902A1, “COMPOSITIONS AND METHODS OF TREATING A PROLIFERATIVE DISEASE WITH A QUINAZOLINONE DERIVATIVE” (GILEAD CALISTOGA LLC, priority 2011, published 2013)
